According to ChEMBL document CHEMBL4507290 (2021):

How the values were obtained:
[1] = molecular target: Ribosomal protein S6 kinase alpha-3 (Homo sapiens) (UniProt P51812); details: Compound concentration 1000.0 nM
[2] = molecular target: Vascular endothelial growth factor receptor 3 (Homo sapiens) (UniProt P35916); details: Compound concentration 1000.0 nM
[3] = molecular target: Serine/threonine-protein kinase SIK1 (Homo sapiens) (UniProt P57059); details: Compound concentration 1000.0 nM
[4] = test system: Tyrosine-protein kinase ABL1 (Homo sapiens), P00519 [H396P]; details: Compound concentration 1000.0 nM
[5] = molecular target: Citron Rho-interacting kinase (Homo sapiens) (UniProt O14578); details: Compound concentration 1000.0 nM
[6] = molecular target: Phosphatidylinositol 3-kinase catalytic subunit type 3 (Homo sapiens) (UniProt Q8NEB9); details: Compound concentration 1000.0 nM
[7] = molecular target: Mitogen-activated protein kinase kinase kinase 4 (Homo sapiens) (UniProt Q9Y6R4); details: Compound concentration 1000.0 nM
[8] = molecular target: Serine/threonine-protein kinase Nek6 (Homo sapiens) (UniProt Q9HC98); details: Compound concentration 1000.0 nM
[9] = test system: Phosphatidylinositol 4,5-bisphosphate 3-kinase catalytic subunit alpha isoform (Homo sapiens), P42336 [H1047Y]; details: Compound concentration 1000.0 nM
[10] = molecular target: Testis-specific serine/threonine-protein kinase 3 (Homo sapiens) (UniProt Q96PN8); details: Compound concentration 1000.0 nM
[11] = molecular target: Mitogen-activated protein kinase 7 (Homo sapiens) (UniProt Q13164); details: Compound concentration 1000.0 nM
[12] = molecular target: Aurora kinase C (Homo sapiens) (UniProt Q9UQB9); details: Compound concentration 1000.0 nM
[13] = test system: Phosphatidylinositol 4,5-bisphosphate 3-kinase catalytic subunit alpha isoform (Homo sapiens), P42336 [H1047L]; details: Compound concentration 1000.0 nM
[14] = molecular target: Dual specificity mitogen-activated protein kinase kinase 3 (Homo sapiens) (UniProt P46734); details: Compound concentration 1000.0 nM
[15] = molecular target: Serine/threonine-protein kinase TAO3 (Homo sapiens) (UniProt Q9H2K8); details: Compound concentration 1000.0 nM
[16] = molecular target: Receptor-interacting serine/threonine-protein kinase 1 (Homo sapiens) (UniProt Q13546); details: Compound concentration 1000.0 nM
[17] = molecular target: Sodium-dependent serotonin transporter (Homo sapiens) (UniProt P31645); details: Compound concentration 10.0 uM
[18] = molecular target: Ephrin type-A receptor 7 (Homo sapiens) (UniProt Q15375); details: Compound concentration 1000.0 nM
[19] = molecular target: Tyrosine-protein kinase ABL2 (Homo sapiens) (UniProt P42684); details: Compound concentration 1000.0 nM
[20] = test system: Receptor-type tyrosine-protein kinase FLT3 (Homo sapiens), P36888 [R834Q]; details: Compound concentration 1000.0 nM
[21] = molecular target: Myosin light chain kinase 2, skeletal/cardiac muscle (Homo sapiens) (UniProt Q9H1R3); details: Compound concentration 1000.0 nM
[22] = molecular target: Protein kinase C theta type (Homo sapiens) (UniProt Q04759); details: Compound concentration 1000.0 nM
[23] = molecular target: Serine/threonine-protein kinase N2 (Homo sapiens) (UniProt Q16513); details: Compound concentration 1000.0 nM
[24] = molecular target: Mitogen-activated protein kinase kinase kinase 1 (Homo sapiens) (UniProt Q13233); details: Compound concentration 1000.0 nM
[25] = molecular target: Mitogen-activated protein kinase 11 (Homo sapiens) (UniProt Q15759); details: Compound concentration 1000.0 nM
[26] = molecular target: Ribosomal protein S6 kinase alpha-4 (Homo sapiens) (UniProt O75676); details: Compound concentration 1000.0 nM
[27] = molecular target: Calcium/calmodulin-dependent protein kinase kinase 1 (Homo sapiens) (UniProt Q8N5S9); details: Compound concentration 1000.0 nM
[28] = molecular target: Serine/threonine-protein kinase PAK 1 (Homo sapiens) (UniProt Q13153); details: Compound concentration 1000.0 nM
[29] = molecular target: G protein-coupled receptor kinase 3 (Homo sapiens) (UniProt P35626); details: Compound concentration 1000.0 nM
[30] = test system: Epidermal growth factor receptor (Homo sapiens), P00533 [UNDEFINED MUTATION]; details: Compound concentration 1000.0 nM
[31] = molecular target: Hormonally up-regulated neu tumor-associated kinase (Homo sapiens) (UniProt P57058); details: Compound concentration 1000.0 nM
[32] = test system: Receptor-type tyrosine-protein kinase FLT3 (Homo sapiens), P36888 [D835V]; details: Compound concentration 1000.0 nM
[33] = molecular target: Death-associated protein kinase 3 (Homo sapiens) (UniProt O43293); details: Compound concentration 1000.0 nM
[34] = molecular target: Mitogen-activated protein kinase kinase kinase 13 (Homo sapiens) (UniProt O43283); details: Compound concentration 1000.0 nM
[35] = molecular target: Megakaryocyte-associated tyrosine-protein kinase (Homo sapiens) (UniProt P42679); details: Compound concentration 1000.0 nM
[36] = molecular target: Tyrosine-protein kinase JAK3 (Homo sapiens) (UniProt P52333); details: Compound concentration 1000.0 nM
[37] = molecular target: Serine/threonine-protein kinase NLK (Homo sapiens) (UniProt Q9UBE8); details: Compound concentration 1000.0 nM
[38] = test system: Epidermal growth factor receptor (Homo sapiens), P00533 [L861Q]; details: Compound concentration 1000.0 nM
[39] = molecular target: Mitogen-activated protein kinase 8 (Homo sapiens) (UniProt P45983); details: Compound concentration 1000.0 nM
[40] = molecular target: Myosin light chain kinase family member 4 (Homo sapiens) (UniProt Q86YV6); details: Compound concentration 1000.0 nM
[41] = molecular target: Serine/threonine-protein kinase Nek9 (Homo sapiens) (UniProt Q8TD19); details: Compound concentration 1000.0 nM
[42] = molecular target: Phosphatidylinositol 4,5-bisphosphate 3-kinase catalytic subunit gamma isoform (Homo sapiens) (UniProt P48736); details: Compound concentration 1000.0 nM
[43] = molecular target: Fibroblast growth factor receptor 1 (Homo sapiens) (UniProt P11362); details: Compound concentration 1000.0 nM
[44] = molecular target: Serine/threonine-protein kinase MRCK gamma (Homo sapiens) (UniProt Q6DT37); details: Compound concentration 1000.0 nM
[45] = molecular target: Muscarinic acetylcholine receptor M1 (Homo sapiens) (UniProt P11229); details: Compound concentration 10.0 uM

Serine/threonine-protein kinase PAK 1 (Homo sapiens), sequence (Q13153 whole entry): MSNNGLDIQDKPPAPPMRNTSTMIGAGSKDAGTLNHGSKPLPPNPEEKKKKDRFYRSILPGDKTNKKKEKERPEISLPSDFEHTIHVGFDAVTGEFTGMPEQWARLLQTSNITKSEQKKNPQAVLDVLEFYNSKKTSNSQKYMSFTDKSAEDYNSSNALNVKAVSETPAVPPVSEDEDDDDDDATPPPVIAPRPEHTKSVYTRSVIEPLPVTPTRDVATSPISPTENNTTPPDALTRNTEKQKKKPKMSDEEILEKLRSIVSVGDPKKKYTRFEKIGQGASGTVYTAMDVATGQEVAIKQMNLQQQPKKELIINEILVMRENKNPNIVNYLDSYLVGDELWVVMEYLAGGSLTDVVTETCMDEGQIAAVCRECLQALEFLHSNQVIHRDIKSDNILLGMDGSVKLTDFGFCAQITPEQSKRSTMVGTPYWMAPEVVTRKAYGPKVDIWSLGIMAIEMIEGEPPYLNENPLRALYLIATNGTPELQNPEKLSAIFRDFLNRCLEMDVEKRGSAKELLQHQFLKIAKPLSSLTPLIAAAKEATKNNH
Megakaryocyte-associated tyrosine-protein kinase (Homo sapiens), sequence (P42679 whole entry): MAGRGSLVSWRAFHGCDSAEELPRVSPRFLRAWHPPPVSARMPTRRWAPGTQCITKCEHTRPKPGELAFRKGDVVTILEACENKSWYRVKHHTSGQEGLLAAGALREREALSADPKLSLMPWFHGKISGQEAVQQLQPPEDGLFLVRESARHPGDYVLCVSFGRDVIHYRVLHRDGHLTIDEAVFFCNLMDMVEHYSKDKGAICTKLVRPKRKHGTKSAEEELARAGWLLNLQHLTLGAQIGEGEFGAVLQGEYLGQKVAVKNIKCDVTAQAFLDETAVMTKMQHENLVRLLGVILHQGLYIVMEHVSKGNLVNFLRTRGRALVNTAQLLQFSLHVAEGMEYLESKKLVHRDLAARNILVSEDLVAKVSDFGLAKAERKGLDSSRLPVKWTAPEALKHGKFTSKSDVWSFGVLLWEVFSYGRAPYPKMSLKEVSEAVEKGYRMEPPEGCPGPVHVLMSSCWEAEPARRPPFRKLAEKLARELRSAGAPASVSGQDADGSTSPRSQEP
Serine/threonine-protein kinase TAO3 (Homo sapiens), sequence (Q9H2K8 whole entry): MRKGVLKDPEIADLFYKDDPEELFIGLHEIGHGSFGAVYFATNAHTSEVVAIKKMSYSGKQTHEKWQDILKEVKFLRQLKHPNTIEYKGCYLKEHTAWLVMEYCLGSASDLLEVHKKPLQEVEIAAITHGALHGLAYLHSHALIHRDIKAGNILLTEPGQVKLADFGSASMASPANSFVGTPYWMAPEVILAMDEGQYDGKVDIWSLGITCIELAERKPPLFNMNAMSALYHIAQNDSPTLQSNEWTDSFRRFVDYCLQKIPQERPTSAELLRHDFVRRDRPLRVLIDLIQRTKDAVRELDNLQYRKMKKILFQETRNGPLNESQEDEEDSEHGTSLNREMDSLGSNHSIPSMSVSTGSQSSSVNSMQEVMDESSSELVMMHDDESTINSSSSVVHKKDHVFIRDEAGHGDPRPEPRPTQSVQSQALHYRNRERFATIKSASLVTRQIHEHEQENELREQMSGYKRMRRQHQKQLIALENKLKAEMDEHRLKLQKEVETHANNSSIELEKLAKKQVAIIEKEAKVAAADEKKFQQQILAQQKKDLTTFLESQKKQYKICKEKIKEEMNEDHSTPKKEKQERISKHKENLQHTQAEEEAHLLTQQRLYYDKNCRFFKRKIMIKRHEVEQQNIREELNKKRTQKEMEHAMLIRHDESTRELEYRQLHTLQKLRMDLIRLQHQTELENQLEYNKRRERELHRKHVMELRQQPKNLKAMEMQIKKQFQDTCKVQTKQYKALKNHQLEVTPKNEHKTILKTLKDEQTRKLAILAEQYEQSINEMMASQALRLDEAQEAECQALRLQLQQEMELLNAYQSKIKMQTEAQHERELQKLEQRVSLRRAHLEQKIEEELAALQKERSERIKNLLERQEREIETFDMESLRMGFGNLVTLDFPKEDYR
Calcium/calmodulin-dependent protein kinase kinase 1 (Homo sapiens), sequence (Q8N5S9 whole entry, looked up): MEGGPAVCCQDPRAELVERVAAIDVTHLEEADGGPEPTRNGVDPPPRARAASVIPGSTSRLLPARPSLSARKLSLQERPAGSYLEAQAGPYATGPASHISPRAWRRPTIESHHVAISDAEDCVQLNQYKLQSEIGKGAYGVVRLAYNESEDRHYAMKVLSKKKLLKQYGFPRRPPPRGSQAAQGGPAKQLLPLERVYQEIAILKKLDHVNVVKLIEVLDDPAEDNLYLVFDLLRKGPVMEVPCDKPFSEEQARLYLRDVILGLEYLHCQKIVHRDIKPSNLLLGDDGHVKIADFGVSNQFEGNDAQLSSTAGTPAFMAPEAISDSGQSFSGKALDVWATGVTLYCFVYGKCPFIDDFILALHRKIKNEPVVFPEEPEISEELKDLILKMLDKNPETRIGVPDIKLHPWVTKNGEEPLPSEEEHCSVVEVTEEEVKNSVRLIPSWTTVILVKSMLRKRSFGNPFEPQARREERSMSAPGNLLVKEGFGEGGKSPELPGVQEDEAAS
Mitogen-activated protein kinase kinase kinase 13 (Homo sapiens), sequence (O43283 whole entry): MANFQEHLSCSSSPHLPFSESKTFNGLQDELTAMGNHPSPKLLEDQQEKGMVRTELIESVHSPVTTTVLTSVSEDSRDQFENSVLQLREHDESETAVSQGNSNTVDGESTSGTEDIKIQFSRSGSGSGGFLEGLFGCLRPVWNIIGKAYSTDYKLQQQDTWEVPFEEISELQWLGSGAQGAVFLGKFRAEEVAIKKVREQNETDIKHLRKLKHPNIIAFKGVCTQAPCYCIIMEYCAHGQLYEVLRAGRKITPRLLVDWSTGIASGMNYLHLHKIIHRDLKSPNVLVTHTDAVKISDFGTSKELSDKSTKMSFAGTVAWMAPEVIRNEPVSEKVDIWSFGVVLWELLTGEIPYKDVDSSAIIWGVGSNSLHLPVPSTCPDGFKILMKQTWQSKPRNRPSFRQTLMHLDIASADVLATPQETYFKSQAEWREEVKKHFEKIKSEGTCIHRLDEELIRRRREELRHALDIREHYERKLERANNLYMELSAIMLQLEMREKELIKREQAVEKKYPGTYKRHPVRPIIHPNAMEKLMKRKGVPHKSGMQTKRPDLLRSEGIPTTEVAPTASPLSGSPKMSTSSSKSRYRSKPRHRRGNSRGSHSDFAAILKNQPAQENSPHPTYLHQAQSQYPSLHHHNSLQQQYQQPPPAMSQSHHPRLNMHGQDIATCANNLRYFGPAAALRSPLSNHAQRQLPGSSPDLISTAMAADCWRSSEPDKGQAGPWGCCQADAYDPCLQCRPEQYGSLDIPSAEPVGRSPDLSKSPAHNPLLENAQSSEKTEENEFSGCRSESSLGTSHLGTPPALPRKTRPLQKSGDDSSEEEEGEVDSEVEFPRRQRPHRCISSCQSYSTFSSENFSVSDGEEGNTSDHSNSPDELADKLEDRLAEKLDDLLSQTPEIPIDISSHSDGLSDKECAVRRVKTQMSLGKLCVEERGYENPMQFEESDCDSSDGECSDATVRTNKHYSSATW
Serine/threonine-protein kinase N2 (Homo sapiens), sequence (Q16513 whole entry, looked up): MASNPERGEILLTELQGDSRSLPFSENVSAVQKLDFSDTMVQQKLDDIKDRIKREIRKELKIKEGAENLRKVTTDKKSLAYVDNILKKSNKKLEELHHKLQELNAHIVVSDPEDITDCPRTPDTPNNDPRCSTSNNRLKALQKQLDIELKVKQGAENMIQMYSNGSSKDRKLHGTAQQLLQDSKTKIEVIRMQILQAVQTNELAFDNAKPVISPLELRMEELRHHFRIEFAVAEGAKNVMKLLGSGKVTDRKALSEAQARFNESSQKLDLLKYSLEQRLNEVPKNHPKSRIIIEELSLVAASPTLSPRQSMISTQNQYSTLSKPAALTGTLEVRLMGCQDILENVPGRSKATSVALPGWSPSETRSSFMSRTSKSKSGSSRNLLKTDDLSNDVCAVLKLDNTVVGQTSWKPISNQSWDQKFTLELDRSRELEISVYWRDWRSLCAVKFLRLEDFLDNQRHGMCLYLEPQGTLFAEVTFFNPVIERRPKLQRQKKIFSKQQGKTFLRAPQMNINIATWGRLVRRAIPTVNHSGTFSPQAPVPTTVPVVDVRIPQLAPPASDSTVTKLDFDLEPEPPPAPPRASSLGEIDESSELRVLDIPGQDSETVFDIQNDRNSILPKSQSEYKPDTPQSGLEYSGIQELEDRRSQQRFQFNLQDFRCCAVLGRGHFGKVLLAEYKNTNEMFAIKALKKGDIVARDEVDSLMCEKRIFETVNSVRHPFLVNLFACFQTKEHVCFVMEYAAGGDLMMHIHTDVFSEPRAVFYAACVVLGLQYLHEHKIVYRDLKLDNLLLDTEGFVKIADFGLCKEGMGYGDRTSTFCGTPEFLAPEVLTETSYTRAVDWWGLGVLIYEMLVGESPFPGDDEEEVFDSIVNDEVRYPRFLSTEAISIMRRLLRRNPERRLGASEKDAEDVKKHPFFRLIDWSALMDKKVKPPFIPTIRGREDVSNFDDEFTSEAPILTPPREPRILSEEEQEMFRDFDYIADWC
Receptor-interacting serine/threonine-protein kinase 1 (Homo sapiens), sequence (Q13546 whole entry): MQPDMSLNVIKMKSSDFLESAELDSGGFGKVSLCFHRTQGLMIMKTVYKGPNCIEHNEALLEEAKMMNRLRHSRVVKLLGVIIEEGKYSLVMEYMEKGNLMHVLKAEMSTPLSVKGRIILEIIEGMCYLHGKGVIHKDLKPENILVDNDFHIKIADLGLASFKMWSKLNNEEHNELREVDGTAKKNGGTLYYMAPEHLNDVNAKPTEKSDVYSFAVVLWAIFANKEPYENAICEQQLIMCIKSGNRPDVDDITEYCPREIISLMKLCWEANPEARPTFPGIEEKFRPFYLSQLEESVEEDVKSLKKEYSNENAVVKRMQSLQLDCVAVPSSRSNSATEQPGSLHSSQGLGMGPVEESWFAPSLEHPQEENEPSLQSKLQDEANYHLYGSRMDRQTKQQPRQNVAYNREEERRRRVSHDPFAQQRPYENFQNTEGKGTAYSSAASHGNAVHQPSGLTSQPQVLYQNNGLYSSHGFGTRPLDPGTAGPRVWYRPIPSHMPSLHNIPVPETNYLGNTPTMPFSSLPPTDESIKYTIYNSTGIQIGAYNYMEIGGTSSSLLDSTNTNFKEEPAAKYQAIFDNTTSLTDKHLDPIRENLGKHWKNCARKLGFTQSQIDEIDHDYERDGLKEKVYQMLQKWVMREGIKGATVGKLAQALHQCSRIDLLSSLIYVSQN

CN([C@@H]1CCc2c(CC(=O)O)c3cc(S(C)(=O)=O)ccc3n2C1)S(=O)(=O)c1ccc(F)cc1
inactive: residual activity [1] 81% | residual activity [2] 100% | residual activity [3] 87% | residual activity [4] 55% | residual activity [5] 96% | residual activity [6] 100% | residual activity [7] 79% | residual activity [8] 84% | residual activity [9] 90% | residual activity [10] 100% | residual activity [11] 96% | residual activity [12] 78% | residual activity [13] 96% | residual activity [14] 88% | residual activity [15] 73% | residual activity [16] 93% | inhibition [17] 5.16% | residual activity [18] 100% | residual activity [19] 100% | residual activity [20] 100% | residual activity [21] 100% | residual activity [22] 78% | residual activity [23] 100% | residual activity [24] 66% | residual activity [25] 83% | residual activity [26] 97% | residual activity [27] 100% | residual activity [28] 95% | residual activity [29] 81% | residual activity [30] 100% | residual activity [31] 100% | residual activity [32] 99% | residual activity [33] 97% | residual activity [34] 100% | residual activity [35] 100% | residual activity [36] 100% | residual activity [37] 100% | residual activity [38] 100% | residual activity [39] 90% | residual activity [40] 100% | residual activity [41] 81% | residual activity [42] 100% | residual activity [43] 100% | residual activity [44] 93% | inhibition [45] -1.48%

CN([C@@H]1CCc2c(CC(=O)O)c3ccccc3n2C1)S(=O)(=O)c1ccc(F)cc1 [MK-7246]
inactive: residual activity [1] 86% | residual activity [2] 95% | residual activity [3] 71% | residual activity [4] 100% | residual activity [5] 100% | residual activity [6] 97% | residual activity [7] 87% | residual activity [8] 99% | residual activity [9] 97% | residual activity [10] 100% | residual activity [11] 100% | residual activity [12] 100% | residual activity [13] 100% | residual activity [14] 84% | residual activity [15] 73% | residual activity [16] 100% | inhibition [17] 9.29% | residual activity [18] 100% | residual activity [19] 100% | residual activity [20] 100% | residual activity [21] 100% | residual activity [22] 83% | residual activity [23] 100% | residual activity [24] 62% | residual activity [25] 88% | residual activity [26] 96% | residual activity [27] 91% | residual activity [28] 96% | residual activity [29] 70% | residual activity [30] 100% | residual activity [31] 99% | residual activity [32] 94% | residual activity [33] 87% | residual activity [34] 100% | residual activity [35] 100% | residual activity [36] 98% | residual activity [37] 100% | residual activity [38] 100% | residual activity [39] 77% | residual activity [40] 100% | residual activity [41] 100% | residual activity [42] 100% | residual activity [43] 100% | residual activity [44] 100% | inhibition [45] 2.42%
